Measurements reported in ChEMBL document CHEMBL5543127, “Design, Synthesis, and Biological Evaluation of 2-Phenoxyalkylhydrazide Benzoxazole Derivatives as Quorum Sensing Inhibitors with Strong Antibiofilm Effect” (J Med Chem, 2024).
≈ marks a conversion by molar mass, not a printed value. Calls of active or inactive are those of the source. The calls are words filed in the database; no cut-off is given here.

Experiments:
Pseudomonas aeruginosa [1] = experiment: Antibacterial activity against Pseudomonas aeruginosa 27853 at logarithmic growth phase assessed as growth inhibition at 153.6 microg/ml measured upto 25 hrs by growth curve assay; type: functional, organism-based; settings: dose 153.6 µg/ml
Bacillus pumilus = experiment: Anti-microbial activity against Bacillus pumilus CMCC63202 incubated for 20 hrs By CLSI based micro-dilution method; type: functional
Staphylococcus aureus [2] = experiment: Anti-microbial activity against methicillin-resistant Staphylococcus aureus ATCC43300 incubated for 20 hrs By CLSI based micro-dilution method; type: functional
Pseudomonas aeruginosa [3] = experiment: Anti-microbial activity against Pseudomonas aeruginosa PAO1 incubated for 20 hrs By CLSI based micro-dilution method; type: functional
Pseudomonas aeruginosa [4] = experiment: Induction of anti-bacterial effect in Pseudomonas aeruginosa PAO1 assessed as synergistic effect by measuring reduction in bacterial survival in presence of clarithromycin measured after 24 hrs incubation; type: functional, organism-based; settings: dose 8-128 µg/ml
Pseudomonas aeruginosa [5] = experiment: Antibacterial activity against Pseudomonas aeruginosa PAO1 at logarithmic growth phase assessed as growth inhibition at 153.6 microg/ml measured upto 25 hrs by growth curve assay; type: functional, organism-based; settings: dose 153.6 µg/ml
[6] = Inhibition of quorum sensing system in Pseudomonas aeruginosa PAO1 at logarithmic growth period assessed as inhibition of pyocyanin production at 102.4 microg/ml incubated for 18 hrs by pyocyanin inhibition assay; settings: dose 102.4 µg/ml
Erythrocyte = experiment: Hemolytic activity in mouse RBC isolated from eye ball assessed as hemolysis at 256 microg/ml incubated for 1 hr; type: toxicity, cell-based; settings: dose 256 µg/ml
Pseudomonas aeruginosa [7] = experiment: Induction of anti-bacterial effect in Pseudomonas aeruginosa PAO1 assessed as synergistic effect by measuring reduction in bacterial survival in presence of ciprofloxacin measured after 24 hrs incubation; type: functional, organism-based; settings: dose 8-128 µg/ml
Pseudomonas aeruginosa [8] = experiment: Anti-microbial activity against penicillin-susceptible Pseudomonas aeruginosa 27853 incubated for 20 hrs By CLSI based micro-dilution method; type: functional
Pseudomonas aeruginosa [9] = experiment: Antibiofilm activity against logarithmic growth phase Pseudomonas aeruginosa PAO1 assessed as inhibition of biofilm formation at 16 microg/ml incubated for 20 hrs by crystal violet staining based analysis; type: functional; settings: dose 16.0 µg/ml
Pseudomonas aeruginosa [10] = experiment: Antibiofilm activity against logarithmic growth phase Pseudomonas aeruginosa PAO1 assessed as inhibition of biofilm formation at 32 microg/ml incubated for 20 hrs by crystal violet staining based analysis; type: functional
Staphylococcus aureus [11] = experiment: Anti-microbial activity against erythromycin-susceptible Staphylococcus aureus ATCC25923 incubated for 20 hrs By CLSI based micro-dilution method; type: functional
Pseudomonas aeruginosa [12] = experiment: Inhibition of protease in logarithmic growth phase Pseudomonas aeruginosa PAO1 assessed as inhibition rate at 102.4 microg/ml measured after 32 hrs; settings: dose 102.4 µg/ml
Bacillus subtilis = experiment: Anti-microbial activity against Bacillus subtilis ATCC9372 incubated for 20 hrs By CLSI based micro-dilution method; type: functional
Escherichia coli = experiment: Anti-microbial activity against penicillin-susceptible Escherichia coli ATCC25922 incubated for 20 hrs By CLSI based micro-dilution method; type: functional
Pseudomonas aeruginosa [13] = experiment: Induction of anti-bacterial effect in Pseudomonas aeruginosa PAO1 assessed as synergistic effect by measuring reduction in bacterial survival in presence of clarithromycin at 16 to 128 microg/ml measured after 24 hrs incubation; type: functional, organism-based; settings: dose 16-128 µg/ml
Pseudomonas aeruginosa [14] = experiment: Induction of anti-bacterial effect in Pseudomonas aeruginosa PAO1 assessed as synergistic effect by measuring reduction in bacterial survival in presence of ciprofloxacin at 128 microg/ml measured after 24 hrs incubation relative to control; type: functional; settings: dose 128 µg/ml
Pseudomonas aeruginosa [15] = experiment: Induction of anti-bacterial effect in Pseudomonas aeruginosa PAO1 assessed as synergistic effect by measuring reduction in bacterial survival in presence of ciprofloxacin at 16 to 128 microg/ml measured after 24 hrs incubation; type: functional, organism-based; settings: dose 16-128 µg/ml
Pseudomonas aeruginosa [16] = experiment: Anti-virulence activity against logarithmic growth phase Pseudomonas aeruginosa PAO1 assessed as inhibition of Rhamnolipid production at 102.4 microg/ml measured after 24 hrs; type: functional
Pseudomonas aeruginosa [17] = experiment: Induction of morphological changes in biofilm of Pseudomonas aeruginosa PAO1 assessed as biofilm damage at 102.4 microg/ml measured after 24 hrs by scanning electron microscopy; type: functional, organism-based; settings: dose 102.4 µg/ml

Row | Compound | Activity (Pseudomonas aeruginosa [1]) | MIC (Bacillus pumilus) [µg/mL] | MIC (Staphylococcus aureus [2]) [µg/mL] | MIC (Pseudomonas aeruginosa [3]) [µg/mL] | Activity (Pseudomonas aeruginosa [4]) | Activity (Pseudomonas aeruginosa [5]) | inhibition [6] | Activity (Erythrocyte) | Activity (Pseudomonas aeruginosa [7]) | MIC (Pseudomonas aeruginosa [8]) [µg/mL] | inhibition (Pseudomonas aeruginosa [9]) | inhibition at 32 µg/mL (Pseudomonas aeruginosa [10]) [%] | MIC (Staphylococcus aureus [11]) [µg/mL] | inhibition (Pseudomonas aeruginosa [12]) | MIC (Bacillus subtilis) [µg/mL] | MIC (Escherichia coli) [µg/mL] | inhibition at 102.4 µg/mL (Pseudomonas aeruginosa [16]) [%] | other results
1 | Cc1ccc(C(=O)NNc2nc3ccccc3s2)cc1 | inactive | 256 (≈ 903 µM) | 256 (≈ 903 µM) | > 512 | Dose-Dependent Effect | inactive | 62.8% | Non-Toxic | Dose-Dependent Effect | 512 (≈ 1810 µM) | Active | > 25.4 | 512 (≈ 1810 µM) | > 20% | 512 (≈ 1810 µM) | > 512 | – | –
2 | O=C(CCCCOc1ccc(Cl)cc1)NNc1nc2ccccc2o1 | – | > 512 | 512 (≈ 1420 µM) | > 512 | Dose-Dependent Effect | – | Active | Non-Toxic | Dose-Dependent Effect | 512 (≈ 1420 µM) | Active | > 25.4 | 128 (≈ 356 µM) | inactive | 512 (≈ 1420 µM) | > 512 | – | Activity (Pseudomonas aeruginosa [13]): Active; Activity (Pseudomonas aeruginosa [14]): >90%; Activity (Pseudomonas aeruginosa [15]): Active
3 | O=C(CCCOc1ccc(C(F)(F)F)cc1)NNc1nc2ccccc2o1 | inactive | > 512 | 256 (≈ 675 µM) | > 512 | Dose-Dependent Effect | inactive | inactive | Non-Toxic | Dose-Dependent Effect | 256 (≈ 675 µM) | Active | > 25.4 | 256 (≈ 675 µM) | 30% | 512 (≈ 1350 µM) | > 512 | > 40 | –
4 | COc1ccc(OCCCC(=O)NNc2nc3ccccc3o2)cc1 | – | 512 (≈ 1500 µM) | 128 (≈ 375 µM) | > 512 | – | – | inactive | – | – | 128 (≈ 375 µM) | Active | > 25.4 | 64 (≈ 187 µM) | 30% | 512 (≈ 1500 µM) | > 512 | > 40 | –
5 | CC[C@H]1OC(=O)[C@H](C)[C@@H](O[C@H]2C[C@@](C)(OC)[C@@H](O)[C@H](C)O2)[C@H](C)[C@@H](O[C@@H]2O[C@H](C)C[C@H](N(C)C)[C@H]2O)[C@](C)(O)C[C@@H](C)CN(C)[C@H](C)[C@@H](O)[C@]1(C)O [AZITHROMYCIN] | – | 0.25 (≈ 0.334 µM) | 256 (≈ 342 µM) | 256 (≈ 342 µM) | – | – | – | – | – | 16 (≈ 21.4 µM) | – | – | 0.25 (≈ 0.334 µM) | – | 0.25 (≈ 0.334 µM) | 128 (≈ 171 µM) | – | Activity (Pseudomonas aeruginosa [17]): Active
6 | O=C(CCCOc1cccc(C(F)(F)F)c1)NNc1nc2ccccc2o1 | inactive | > 512 | 512 (≈ 1350 µM) | > 512 | Dose-Dependent Effect | inactive | inactive | – | Dose-Dependent Effect | 256 (≈ 675 µM) | Active | > 25.4 | 256 (≈ 675 µM) | 30% | 512 (≈ 1350 µM) | > 512 | > 40 | –
7 | O=C(CCCCOc1ccc(F)cc1)NNc1nc2ccc(Cl)cc2o1 | – | 256 (≈ 678 µM) | 256 (≈ 678 µM) | > 512 | – | – | Active | – | – | > 512 | Active | > 25.4 | 512 (≈ 1360 µM) | inactive | 512 (≈ 1360 µM) | > 512 | > 40 | –
8 | O=C(CCCCOc1ccc(F)cc1)NNc1nc2ccccc2o1 | – | > 512 | > 512 | > 512 | Dose-Dependent Effect | – | 53.6% | Non-Toxic | Dose-Dependent Effect | 512 (≈ 1490 µM) | Active | > 25.4 | > 512 | inactive | > 512 | > 512 | – | Activity (Pseudomonas aeruginosa [13]): Active; Activity (Pseudomonas aeruginosa [14]): >90%; Activity (Pseudomonas aeruginosa [15]): Active
9 | O=C(CCCCOc1cccc(F)c1)NNc1nc2ccccc2o1 | – | > 512 | > 512 | > 512 | Dose-Dependent Effect | – | Active | Non-Toxic | Dose-Dependent Effect | 512 (≈ 1490 µM) | Active | > 25.4 | 512 (≈ 1490 µM) | inactive | > 512 | > 512 | 52.1 | Activity (Pseudomonas aeruginosa [13]): Active; Activity (Pseudomonas aeruginosa [14]): >90%; Activity (Pseudomonas aeruginosa [15]): Active
10 | O=C(CCCCOc1ccc(Cl)cc1)NNc1nc2ccc(Cl)cc2o1 | – | 256 (≈ 649 µM) | 256 (≈ 649 µM) | > 512 | Dose-Dependent Effect | – | Active | – | Dose-Dependent Effect | > 512 | Active | > 25.4 | 256 (≈ 649 µM) | inactive | 512 (≈ 1300 µM) | > 512 | > 40 | –
11 | O=C(CCCCOc1ccc(Cl)cc1)NNc1nc2ccccc2s1 | inactive | 256 (≈ 681 µM) | 512 (≈ 1360 µM) | > 512 | – | inactive | Active | – | – | > 512 | Active | > 25.4 | 256 (≈ 681 µM) | – | > 512 | > 512 | > 40 | –
12 | CCCCCCCCCCC(=O)N/N=c1\sc2ccccc2n1C | inactive | > 512 | > 512 | > 512 | Dose-Dependent Effect | inactive | – | Non-Toxic | Dose-Dependent Effect | > 512 | Active | > 25.4 | > 512 | > 20% | > 512 | > 512 | – | Activity (Pseudomonas aeruginosa [13]): Active; Activity (Pseudomonas aeruginosa [14]): >90%; Activity (Pseudomonas aeruginosa [15]): Active
13 | O=C(NNc1nc2ccccc2s1)c1ccccc1F | inactive | 512 (≈ 1780 µM) | > 512 | > 512 | Dose-Dependent Effect | inactive | 62.8% | Non-Toxic | Dose-Dependent Effect | 512 (≈ 1780 µM) | Active | > 25.4 | > 512 | > 20% | 512 (≈ 1780 µM) | > 512 | – | –
14 | COc1ccc(OCCCCC(=O)NNc2nc3ccccc3o2)cc1 | – | > 512 | > 512 | > 512 | Dose-Dependent Effect | – | Active | Non-Toxic | Dose-Dependent Effect | 512 (≈ 1440 µM) | Active | > 25.4 | 512 (≈ 1440 µM) | 14.6% | 512 (≈ 1440 µM) | > 512 | 52.1 | –
